How the values were obtained:
[1] = plasma kinetics of ibuprofen and MR-653 in the male rat
From the text: The investigational drugs were given by oral gavage, suspended in 0.5 percent gum arabic; an analogous suspension was used in the case of the intraperitoneal administration.

gastric mucosa = experiment: gastric injuring effects; format: in vivo, Wistar rats
Description: The compounds were given intraperitoneally at the equimolar dose of 500 mg/kg. The animals were killed 5 hours after the treatment in order to assess the conditions of the gastric mucosa, and the possible presence of bleedings and ulcers.

[2] = tested on: squirmings (acetylcholine); experiment: acetylcholine test: squirmings induced by acetylcholine; format: in vivo, mouse; settings: oral, one hour before acetylcholine, equimolar doses; 4 minutes observation
Description: Squirmings were induced by an intraperitoneal injection of acetylcholine ([…]; 0.5 ml per mouse); both compounds were given orally one hour before the administration of acetylcholine at the dose of 10 mg/kg, in equimolar doses. […] The results reported below were obtained in comparison with the control group: […]

[3] = tested on: abdominal squirmings (phenylquinone); experiment: analgesic activity: abdominal squirmings induced by phenylquinone; format: in vivo; settings: oral, 100 mg/kg (equimolar doses), one hour before; 20 minutes observation
Description: Abdominal squirmings were induced by an intraperitoneal injection in saline, given at the dose of 4 mg/kg/20 ml.

carrageenin edema [4] = experiment: carrageenin edema test in the rat (percent protection); format: in vivo, rat (Wistar); settings: for peak of activity (time) / time course of activity after the peak: carrageenin edema; for peak of activity (time) / time course of activity after the peak / Percent protection from the carrageenin edema: oral; for Percent protection from the carrageenin edema: detection after 4 hours, ibuprofen 100 mg/kg, MR-653 200 mg/kg (equimolar)
Description: 1 percent carrageenin in saline was given, at the rate of 0.1 ml subcutaneously, into the plantar area of the left paw.
The compounds were administered 1, 3 and 6 hours respectively before the carrageenin injection; the related values were always read 4 hours after the carrageenin injection, duly assessing the percent swelling of the paw versus the value at the time 0 (carrageenin inocula). The results are expressed as percent protection considering the swelling in the control group as equal to 100.

carrageenin edema [5] = experiment: as above; format: in vivo, rat (Wistar); settings: oral, ibuprofen 100 mg/kg, MR-653 200 mg/kg (equimolar)
mouse = experiment: acute toxicity, oral LD 50 in the mouse; format: in vivo; settings: versus the corresponding acid (ibuprofen for MR-653)
[6] = acute toxicity, oral LD 50 in the mouse; format: in vivo; settings: in vivo; mouse, oral
solubility = format: physicochemical
[7] = intraperitoneal, equimolar dose of 500 mg/kg, 5 hours after treatment

CC(C)Cc1ccc(C(C)C(=O)O)cc1 (stereo not drawn) [Ibuprofen, 2-(4-isobutyl-phenyl) propionic acid]
time of peak of the plasma levels of ibuprofen ([1]; plasma kinetics, oral): at the first hour
AUC at 7 h ([1]; rat, in vivo, ip, 58.8 mg/kg): ~325 µg·h/mL
concentration at 0.5 h ([1]; rat, in vivo, ip, 58.8 mg/kg): 215000 ± 33400 ng/mL
concentration at 1 h ([1]; rat, in vivo, ip, 58.8 mg/kg): 105000 ± 12400 ng/mL
concentration at 2 h ([1]; rat, in vivo, ip, 58.8 mg/kg): 18300 ± 11000 ng/mL
concentration at 7 h ([1]; rat, in vivo, ip, 58.8 mg/kg): 6200 ± 2400 ng/mL
AUC at 7 h ([1]; rat, in vivo, po, 58.8 mg/kg): ~190 µg·h/mL
concentration at 1 h ([1]; rat, in vivo, po, 58.8 mg/kg): 71700 ± 23600 ng/mL
concentration at 2 h ([1]; rat, in vivo, po, 58.8 mg/kg): 32200 ± 7700 ng/mL
concentration at 5 h ([1]; rat, in vivo, po, 58.8 mg/kg): 12100 ± 22000 ng/mL
concentration at 7 h ([1]; rat, in vivo, po, 58.8 mg/kg): 9100 ± 1500 ng/mL
incidence of punctiform ulcer (gastric mucosa; [7]): 14%
condition of stomach / peritoneum (gastric mucosa; rat, in vivo, ip, 500 mg/kg): almost normal mucosa with a fair quantity of a yellowish foamy secretion
protection versus control group (acetylcholine squirming) [2]: 50%
protection versus the control group (phenylquinone squirming) [3]: 20%
peak of activity (time) (carrageenin edema [4]; equimolar doses): around the first hour
time course of activity after the peak (carrageenin edema [4]; equimolar doses): rapid and progressive decrease even starting from the second hour
Percent protection from the carrageenin edema (carrageenin edema [4]): 24%
Percent protection from the carrageenin edema (carrageenin edema [5]; detection after 1 hour): 60%
Percent protection from the carrageenin edema (carrageenin edema [5]; detection after 2 hours): 44%
Percent protection from the carrageenin edema (carrageenin edema [5]; detection after 3 hours): 28%
Percent protection from the carrageenin edema (carrageenin edema [5]; detection after 6 hours): 20%

CC(C)Cc1ccc(C(C)C(=O)OCCOCCOCCOCCO)cc1 (stereo not drawn) [MR-653, Monoester of 2-(4-isobutyl-phenyl)propionic acid with tetraethylene glycol]
toxicity compared with the corresponding acid (mouse): practically unchanged values of toxicity and gastric injuring effects
LD50 [6]: > 2000 mg/kg
condition of stomach / peritoneum (gastric mucosa; [7]): mildly hyperemic peritoneal exudate
incidence of punctiform ulcer (gastric mucosa; [7]): 16%
gastric injuring effects compared with the corresponding acid (gastric mucosa; versus the corresponding acid (ibuprofen for MR-653)): practically unchanged values of toxicity and gastric injuring effects
solubility in organic solvents (solubility; methanol, diethyl ether, acetone and chloroform): soluble on the other hand in methanol, diethyl ether, acetone and chloroform
solubility in water (solubility; water): practically insoluble in water
protection versus control group (acetylcholine squirming) [2]: 48%
protection versus the control group (phenylquinone squirming) [3]: 20%
peak of activity (time) (carrageenin edema [4]; equimolar doses): around the first hour
time course of activity after the peak (carrageenin edema [4]; equimolar doses): markedly slower
Percent protection from the carrageenin edema (carrageenin edema [4]): 44%
anti-inflammatory activity higher than that of ibuprofen until the 6th hour (carrageenin edema [4]; equimolar doses, versus ibuprofen): 48%
Percent protection from the carrageenin edema (carrageenin edema [5]; detection after 1 hour): 64%
Percent protection from the carrageenin edema (carrageenin edema [5]; detection after 2 hours): 59%
Percent protection from the carrageenin edema (carrageenin edema [5]; detection after 3 hours): 47%
Percent protection from the carrageenin edema (carrageenin edema [5]; detection after 6 hours): 34%

Source: patent US4379091A, “Esters of arylpropionic acids endowed with an anti-inflammatory activity” (priority 1980, dated 1983)
